Where two headings read alike, the source gives them in different places. Bounds are passed on as bounds.

One data set addresses T1, AmpC N289A (Escherichia coli, UniProt P00811, N305A).
T1 construct: made in house
The data set is described as follows: biochemical. Format: biochemical. The method, then: (§1) Enzyme mutagenesis and preparation. Mutants of AmpC were created using the overlap extension polymerase chain reaction (23). Mutant enzymes were expressed as described. AmpC N289A and L293A were purified on an m-aminophenylboronic acid affinity column. AmpC L119A was purified on an S-Sepharose ion-exchange column. The purified enzymes were concentrated using Centricon spin concentrators.
(§2) Mutant Enzymology. The glycylboronic acids were dissolved in DMSO at a concentration of 50 mM; more dilute stocks were subsequently prepared as necessary. Kinetic measurements were performed using nitrocefin as a substrate in 50 mM Tris buffer, pH 7.0, and monitored at 480 nm in an HP9453 UV-vis spectrophotometer. To prevent overestimation of inhibition due to sequestration of the enzyme on the walls of the cuvette during the reaction, 0.1% BSA was added to the buffer in all reactions. […] To determine Ki values, inhibitor and enzyme were incubated together in the cuvettes for 5 min before reaction was initiated by the addition of substrate. 200 μM nitrocefin was used for the reactions with L119A and L293A, whereas 400 μM nitrocefin was used for the reactions with N289A to shorten the lag phase of the reaction. For the reactions with N289A, rates were calculated from the later portions of the curve, once the reactions had achieved steady state. These rates were compared with portions of the uninhibited curves that corresponded to the same range of substrate concentrations.

Data set [1] concerns the target T2, AmpC β-lactamase (Escherichia coli, UniProt P00811).
T2 construct: made in house
The data set is described as follows: biochemical. As to conditions: for fold more potent than the lead compound lacking the m.carboxyphenyl side chain: 15 versus 1, 16 versus 4. Here is the method:
Enzymology. The phenylglycylboronic acids of the preceding examples were dissolved in DMSO at a concentration of 50 mM; more dilute stocks (10 mM to 1 μM) were subsequently prepared as necessary. Kinetic measurements were performed using nitrocefin as substrate in 50 mM Tris buffer, pH 7.0 and monitored in an HP8453 UV/Vis spectrophotometer. The concentration of AmpC was determined spectrophotometrically in stock solutions made from lyophilized powder; this enzyme had been previously expressed and purified. Usher, K. C., Blaszczak, L. C., Weston, G. S., Shoichet, B. K. and Remington, S. J. Biochemistry 1998, 37, 16082-16092. […] To determine K, values, inhibitor and enzyme were incubated together at their final concentration in the cuvettes for five minutes before the reaction was initiated by the addition of 200 μM substrate. […] Waley, S. G. Biochem. J. 1982, 205 631-633. […] In all reactions, rates were measured after reactions had overcome their initial lag phase and had reached a steady state.
as §2

In data set [2] the test system is Escherichia coli 72929 Hip. The data set is described as follows: MIC, synergy with ceftazidime, microdilution. Format: cell-based. As to conditions: E. coli 1, ceftazidime to inhibitor 1:1 in combinations. Here is the method: (§3) Microbiology. Compounds 16 and 21 were tested for synergy with the β-lactam ceftazidime against pathogenic bacteria from clinical isolates at the Hospital Ramón y Cajal; these bacteria were resistant to β-lactams due to expression of a class C β-lactamase. Strains of bacteria tested were: Citrobacter freundii mut756-CAZ, Escherichia coli 72929 Hip, E. coli 4774 Hip (Table 4, E. coli 1 and 2, respectively), Enterobacter cloacae 72527 ED, E. cloacae 8411 CAZ-R clon7, E. cloacae 12991 ED (Table 4, E. cloacae 1, 2, and 3, respectively), Pseudomonas aeruginosa 279/88, and P. aeruginosa JMSMA7 (Table 4, P. aeruginosa 1 and 2, respectively). Minimum inhibitor concentration (MIC) values were determined with Mueller-Hinton Broth II using the microdilution method according to NCCLS guidelines. National Committee for Clinical Laboratory Standards, Methods for dilution antimicrobial susceptibility test for bacteria that grow aerobically. Approved Standard M7-A4, 1997, vol. 17, National Committee for Clinical Laboratory Standards, Villanova, Pa.

Another data set relates to P. aeruginosa JMSMA7. Briefly: MIC, synergy with ceftazidime, microdilution. Format: cell-based. Conditions: Pseudomonas aeruginosa, P. aeruginosa 2, ceftazidime to inhibitor 1:1 in combinations. Here is the method: as §3
Data set [3] has as its target T2, AmpC β-lactamase. Conditions: glycylboronic acid previously found, no buffer footnote; cited from earlier work.
In another data set the target is T3, AmpC L119A (Escherichia coli, UniProt P00811, L135A).
T3 construct: made in house
T3 sequence (P00811 20-377 L135A): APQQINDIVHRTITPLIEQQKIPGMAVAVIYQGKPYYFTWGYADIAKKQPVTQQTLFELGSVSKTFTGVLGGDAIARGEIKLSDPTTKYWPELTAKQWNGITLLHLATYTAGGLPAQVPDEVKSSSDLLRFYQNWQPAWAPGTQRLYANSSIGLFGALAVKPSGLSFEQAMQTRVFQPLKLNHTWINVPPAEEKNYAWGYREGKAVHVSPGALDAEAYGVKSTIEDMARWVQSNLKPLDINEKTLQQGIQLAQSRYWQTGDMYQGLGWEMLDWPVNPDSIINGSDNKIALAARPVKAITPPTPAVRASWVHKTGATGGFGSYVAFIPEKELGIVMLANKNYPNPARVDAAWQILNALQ
Briefly: biochemical. It counts as biochemical. Here is the method:
as §1, §2

The target in another data set is T4, AmpC L293A (Escherichia coli, UniProt P00811, L309A).
T4 construct: made in house
T4 sequence (P00811 20-377 L309A): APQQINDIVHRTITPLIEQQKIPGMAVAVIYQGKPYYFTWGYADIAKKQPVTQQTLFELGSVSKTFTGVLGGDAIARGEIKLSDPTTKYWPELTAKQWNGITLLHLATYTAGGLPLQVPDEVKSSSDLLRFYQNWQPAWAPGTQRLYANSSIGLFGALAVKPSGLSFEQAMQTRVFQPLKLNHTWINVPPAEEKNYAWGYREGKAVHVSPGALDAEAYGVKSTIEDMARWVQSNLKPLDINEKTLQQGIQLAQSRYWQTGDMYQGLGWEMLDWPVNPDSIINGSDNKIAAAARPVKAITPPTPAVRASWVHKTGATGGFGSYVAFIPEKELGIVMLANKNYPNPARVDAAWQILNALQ
The data set is described as follows: biochemical. Format: biochemical. The method, then:
as §1, §2

For data set [4], the target named is β-trypsin (bovine pancreatic) (Bos taurus, UniProt P00760). Briefly: Selectivity: serine protease β-trypsin. It counts as biochemical. Conditions: 50 mM Tris pH 7.0, 25° C. The text has this:
Selectivity. […] The reaction was monitored at 410 nm. […] The reaction was monitored at 253 nm. […] The reaction was monitored at 385 nm.

Data set [5] has as its system eight clinically isolated bacterial pathogens producing class C β-lactamases. Format: cell-based. As to conditions: against all strains. The method, then: Microbiology. Compounds 16 and 21 were tested for synergy with the β-lactam ceftazidime against pathogenic bacteria from clinical isolates at the Hospital Ramón y Cajal; these bacteria were resistant to β-lactams due to expression of a class C β-lactamase. […] Minimum inhibitor concentration (MIC) values were determined with Mueller-Hinton Broth II using the microdilution method according to NCCLS guidelines. National Committee for Clinical Laboratory Standards, Methods for dilution antimicrobial susceptibility test for bacteria that grow aerobically. Approved Standard M7-A4, 1997, vol. 17, National Committee for Clinical Laboratory Standards, Villanova, Pa.

Data set [6] concerns the target α-chymotrypsin (bovine pancreatic) (Bos taurus, UniProt P00766). Briefly: biochemical. Conditions: for selectivity for AmpC over α-chymotrypsin: ratio of IC50 values. Here is the method: (§4) Selectivity. The selectivity of compounds 16 and 21 was tested by determining their activity against the serine proteases α-chymotrypsin (bovine pancreatic), β-trypsin (bovine pancreatic), and elastase (porcine pancreatic), all from Sigma (St. Louis, Mo.). The substrates for α-chymotrypsin (succinyl-ala-ala-pro-phe-p-nitroanilide) and β-trypsin (N-benzoyl-L-arginine ethyl ester) were also purchased from Sigma. The elastase substrate (MeOSuc-Ala-Ala-Pro-Val-pNA) was purchased from Calbiochem (San Diego, Calif.). Substrates were diluted from 20 mM DMSO stock solutions, and all reactions were performed in 50 mM Tris buffer, pH 7.0, 25° C. For α-chymotrypsin, 0.001 mg/ml of enzyme and the inhibitor at its final concentration were incubated in the cuvette for five minutes before the reaction was initiated by the addition of 200 μM of substrate. The reaction was monitored at 410 nm. For β-trypsin, 0.004 mg/ml of enzyme and the inhibitor at its final concentration were incubated in the cuvette for five minutes before the reaction was initiated by the addition of 200 μM of substrate. The reaction was monitored at 253 nm. For elastase, 0.006 mg/ml of enzyme and the inhibitor at its final concentration were incubated in the cuvette for five minutes before the reaction was initiated by the addition of 640 μM of substrate. The reaction was monitored at 385 nm. Initial rate fits to the absorbance data for the first 100 seconds were used to determine reaction velocities.

Data set [7] concerns the target elastase (porcine pancreatic) (Sus scrofa, UniProt P00772). The data set is described as follows: biochemical. Conditions: for selectivity for AmpC over elastase: ratio of IC50 values. The method, then: as §4
[8] abbreviates: differential free energy of binding relative to compound 1, 298 K, positive = improved affinity.

T1 sequence (P00811 20-377 N305A): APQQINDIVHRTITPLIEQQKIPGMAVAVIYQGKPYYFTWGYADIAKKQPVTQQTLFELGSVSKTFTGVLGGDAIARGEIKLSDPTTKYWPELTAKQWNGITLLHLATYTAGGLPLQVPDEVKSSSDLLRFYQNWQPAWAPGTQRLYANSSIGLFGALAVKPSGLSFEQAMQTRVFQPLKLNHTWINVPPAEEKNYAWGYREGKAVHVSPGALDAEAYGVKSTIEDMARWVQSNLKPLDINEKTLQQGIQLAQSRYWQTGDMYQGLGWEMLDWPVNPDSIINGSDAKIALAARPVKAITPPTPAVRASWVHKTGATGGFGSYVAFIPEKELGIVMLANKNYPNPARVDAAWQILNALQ
T2 sequence (P00811 20-377): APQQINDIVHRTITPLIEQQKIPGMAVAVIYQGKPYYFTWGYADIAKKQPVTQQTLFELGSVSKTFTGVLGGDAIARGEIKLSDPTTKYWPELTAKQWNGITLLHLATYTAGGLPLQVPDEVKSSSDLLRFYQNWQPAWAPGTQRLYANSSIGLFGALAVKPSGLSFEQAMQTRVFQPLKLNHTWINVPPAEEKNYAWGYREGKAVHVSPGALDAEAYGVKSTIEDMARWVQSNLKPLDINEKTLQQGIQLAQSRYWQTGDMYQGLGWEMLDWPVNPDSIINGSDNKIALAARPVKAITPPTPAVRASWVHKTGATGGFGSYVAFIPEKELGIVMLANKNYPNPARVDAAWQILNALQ
Chain of elastase (porcine pancreatic) (P00772 27-266): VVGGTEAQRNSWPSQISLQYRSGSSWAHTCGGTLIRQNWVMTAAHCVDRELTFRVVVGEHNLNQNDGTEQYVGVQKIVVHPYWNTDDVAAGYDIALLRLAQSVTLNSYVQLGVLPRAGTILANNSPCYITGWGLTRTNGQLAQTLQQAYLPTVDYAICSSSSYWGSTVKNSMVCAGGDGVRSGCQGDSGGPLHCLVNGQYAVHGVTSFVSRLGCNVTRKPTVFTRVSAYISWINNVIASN
Chain of β-trypsin (bovine pancreatic) (P00760 24-246): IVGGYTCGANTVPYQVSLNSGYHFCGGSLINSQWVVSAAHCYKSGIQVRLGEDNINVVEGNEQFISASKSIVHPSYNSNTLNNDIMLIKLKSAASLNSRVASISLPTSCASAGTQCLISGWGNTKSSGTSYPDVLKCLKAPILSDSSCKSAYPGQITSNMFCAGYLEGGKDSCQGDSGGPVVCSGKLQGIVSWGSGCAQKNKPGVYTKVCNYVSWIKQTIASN

`CC1(C)C2CC3OB([C@@H](NC(=O)Cc4cccs4)c4cccc(C=O)c4)O[C@@]3(C)C1C2` (single isomer, unassigned; (+)) [Compound 26]: the Ki on AmpC N289A amounted to 0.018 µM; at AmpC β-lactamase [1], 0.015 µM.

On to `CC(C)(O/N=C(\C(=O)N[C@@H]1C(=O)N2C(C(=O)[O-])=C(C[n+]3ccccc3)CS[C@H]12)c1csc(N)n1)C(=O)O` [CAZ, ceftazidime], for which the MIC in data set [2] is 32 µg/mL; in the data set on P. aeruginosa JMSMA7 it was 64 µg/mL.

In the case of `CC(=O)NCB(O)O` [Compound 1, reference compound], the “ΔΔG from 1” value at AmpC β-lactamase [1] (setting [8]) is on record as 0.00 kcal/mol.

Consider `CC(C)(O/N=C(\C(=O)NCB(O)O)c1csc(N)n1)C(=O)O` [Compound 3, reference compound], for which, on AmpC β-lactamase [1] (setting [8]), the “ΔΔG from 1 (kcal/mol)” value was 4.04 — kcal/mol. In addition, on AmpC β-lactamase [3], the inhibition constant (Ki) is 0.02 µM.

As to `O=C(Cc1cccs1)NCB(O)O` [Compound 4, reference compound], the Ki on AmpC L119A stood at 0.676 µM; on AmpC L293A, 6.2 µM; at AmpC β-lactamase [1], 0.186 µM.

As for `CC(=O)N[C@H](B(O)O)c1cccc(C(=O)O)c1` [Compound 15, (1R)-1-acetylamino-1-(3-carboxyphenyl)methylboronic acid], on AmpC β-lactamase [1], affinity was put at a Ki of 0.13 µM and the “fold more potent than the lead compound lacking the m.carboxyphenyl side chain” value was found to be 150 fold. Further, the “ΔΔG from 1” value at AmpC β-lactamase [1] (setting [8]) worked out at 2.95 kcal/mol.

For the compound `O=C(Cc1cccs1)N[C@H](B(O)O)c1cccc(C(=O)O)c1` [Compound 16, (1R)-1-(2-thienylacetylamino)-1-(3-carboxyphenyl)methylboronic acid], on AmpC N289A, the Ki turned out to be 0.017 µM and the “reduction of affinity by the N289A substitution versus the wild-type enzyme” value came to 17 fold. In addition, the “ΔΔΔG, hydrogen bond energy between Asn289 and the inhibitor group” value on AmpC N289A (thermodynamic cycle, WT AmpC / N289A, mutant ligand 21) was found to be 1.7 kcal/mol. On AmpC β-lactamase [1], 0.0026 µM corresponded to half-maximal inhibition (IC50), the Ki came out at 0.001 µM, the “type of inhibition of AmpC” value was “time-dependent inhibition” and the “fold more potent than the lead compound lacking the m.carboxyphenyl side chain” value is on record as 300 fold. Moreover, the inhibitory constant (Ki) at AmpC β-lactamase [1] (50 mM Tris pH 7.0, 200 μM nitrocefin, 5 min incubation) is 0.001 µM. The “ΔΔG from 1” value on AmpC β-lactamase [1] (setting [8]) was 5.82 kcal/mol. Further, the “improvement of binding energy by addition of the m.carboxyphenyl side chain” value at AmpC β-lactamase [1] (versus lead lacking the side chain) came out at 3.4 kcal/mol. In data set [4], this compound displayed an IC50 of over 1000 µM. Also, the synergy with ceftazidime result in [5] was “showed synergy”. In data set [6], the IC50 was 150 µM and the “selectivity for AmpC over α-chymotrypsin” value is 57,000 fold. For the same compound, in [7], the IC50 amounted to 500 µM and the “selectivity for AmpC over elastase” value is reported as 190,000 fold.

Turning to `Cc1onc(-c2ccccc2Cl)c1C(=O)N[C@H](B(O)O)c1cccc(C(=O)O)c1` [Compound 17, (1R)-1-{[3-(2-Chlorophenyl)-5-methyl-isoxazole-4-carbonyl]-amino}-1-(3-carboxyphenyl)methylboronic acid], the melting point was 180 to 190 °C. The Ki on AmpC β-lactamase [1] came out at 5.7 µM. Besides, at AmpC β-lactamase [1] (17 versus 2), the “binding energy made worse by addition of the m.carboxyphenyl group” value was “about 2 kcal/mol” and the “fold less potent (higher Ki) than compound 2 lacking the m.carboxyphenyl group” value stood at 40 fold. Further, the “ΔΔG from 1” value on AmpC β-lactamase [1] (setting [8]) was 0.70 kcal/mol.

`O=C(Cc1cccs1)N[C@H](B(O)O)c1ccccc1` [Compound 21, (1R)-1-(2-thienylacetylamino)-1-phenylmethylboronic acid]: the melting point fell in the range of 90 to 100 °C. The compound further yielded a Ki on AmpC N289A of 0.037 µM. In addition, on AmpC N289A (AmpC N289A), the “fall in affinity relative to the affinity of 16 for the mutant” value came out at 2 fold. The compound also gave a Ki on AmpC L119A of 0.012 µM. For the same compound, the “ΔΔΔG, interaction between the inhibitor phenyl ring and Leu119” value on AmpC L119A (thermodynamic cycle, WT AmpC / L119A, L=21, L′=4, negative = unfavorable) is -1.4 kcal/mol. Also, on AmpC L293A, the affinity, expressed as Ki, was 0.521 µM. For the same compound, at AmpC L293A (thermodynamic cycle, WT AmpC / L293A, L=21, L′=4, negative = unfavorable), the “ΔΔΔG, interaction between the inhibitor phenyl ring and Leu293” value was -0.5 kcal/mol. Further, the “reduction of affinity by the L293→Ala substitution” value on AmpC L293A (versus wild-type AmpC) turned out to be 1.6 kcal/mol. At AmpC β-lactamase [1], this compound registered an IC50 of 0.09 µM and a Ki of 0.035 µM. For the same compound, the “ΔΔG from 1” value on AmpC β-lactamase [1] (setting [8]) is 3.71 kcal/mol. Also, at AmpC β-lactamase [1] (wild-type AmpC), the “fold less active than compound 16” value worked out at 35 fold. The compound also had an IC50 in data set [4] of over 1000 µM. Moreover, the synergy with ceftazidime entry in data set [5] is on record as “showed synergy”. In [6], the IC50 was found to be 6 µM and the “selectivity for AmpC over α-chymotrypsin” value is recorded as 60 fold. Further, in data set [7], the IC50 stood at 128 µM and the “selectivity for AmpC over elastase” value is 1,400 fold.

For the compound `O=C(Cc1cccs1)N[C@@H]1C(=O)N2C(C(=O)O)=C(/C=C/c3ccc([N+](=O)[O-])cc3[N+](=O)[O-])CS[C@H]12` [nitrocefin, reference compound], the Michaelis constant (Km) at AmpC N289A (read-out: KM of nitrocefin, N289A) was determined as 27 µM; on AmpC L293A (read-out: KM of nitrocefin, L293A), 33 µM.
